Data taken from article PMC10778198, “First-in-Human Dose-Escalation Study of the Novel Oral Depsipeptide Class I-Targeting HDAC Inhibitor Bocodepsin (OKI-179) in Patients with Advanced Solid Tumors” (Cancers, 2023).
Marks after values point to notes of the source that are not given here.

System: patients with advanced solid tumors
Test: phase I dose escalation: safety, DLT, MTD, RP2D (CTCAE v. 5)
Type: in vivo
Settings: for maximum tolerated dose (MTD): oral once daily
From the text: Subsequent dosing cohorts were enrolled using a standard 3 + 3 design.
If any patient in any cohort of three patients developed a DLT during cycle 1, an additional three patients were recruited to expand the cohort to up to six evaluable patients. If two or more patients in any expanded cohort developed a DLT, this dose was considered non-tolerated, and dose escalation was discontinued. The MTD was defined as the highest dose level for which no more than one of six patients experienced a DLT.
Patients were continuously evaluated for adverse events throughout the study using the Common Terminology Criteria of Adverse Events (CTCAE v. 5). The patients underwent a clinical history and physical examination, an ECOG PS, a complete blood count (CBCs), chemistry, coagulation studies, urinalysis, a serum pregnancy test (as applicable), a triplicate ECG, an ophthalmology examination, and baseline tumor assessment at screening. During cycle 1, weekly history and physical examination, CBC, chemistry, coagulation parameters, urinalysis, and triplicate ECGs were performed; in subsequent cycles, weekly labs were limited to a CBC. Repeat ophthalmology examinations were performed at cycle 3, day 1, and at the end of treatment. Repeat tumor assessment was performed every 2 cycles (6 weeks) in accordance with RECIST 1.1.

[1] = All Continuous Patients (N=8), G3
[2] = All Continuous Patients (N=8), G4

**Q.** What does the source list for CC(C)[C@H](N)C(=O)SCC/C=C/[C@@H]1CC(=O)NCc2nc(cs2)C(=O)NC(C)(C)C(=O)N[C@@H](C(C)C)C(=O)O1 [OKI-179, Bocodepsin]?
**A.** TEAE: Headache [1]: 0 N (%); TEAE: Nausea [1]: 0 N (%); TEAE: Pain [1]: 0 N (%); TEAE: Platelet count decreased [1]: 0 N (%); TEAE: Abdominal pain [2]: 0 N (%); TEAE: Anemia [2]: 0 N (%); TEAE: Constipation [2]: 0 N (%); TEAE: Decreased appetite [2]: 0 N (%); TEAE: Diarrhea [2]: 0 N (%); TEAE: Dyspepsia [2]: 0 N (%); TEAE: ECG QT prolonged [2]: 0 N (%); TEAE: Fatigue [2]: 0 N (%); TEAE: Headache [2]: 0 N (%); TEAE: Nausea [2]: 0 N (%); TEAE: Pain [2]: 0 N (%); TEAE: Platelet count decreased [2]: 2 (25) N (%); DLTs (Cohort 1, 30 mg, Schedule 1 (4:3), 1 patient): 0 patients; DLTs (Cohort 2, 60 mg, Schedule 1 (4:3), 2 patients): 0 patients; DLTs (Cohort 3, 90 mg, Schedule 1 (4:3), 1 patient): 0 patients; DLTs (Cohort 4, 120 mg, Schedule 1 (4:3), 1 patient): 0 patients; DLTs (Cohort 5, 150 mg, Schedule 1 (4:3), 1 patient): 0 patients; DLTs (Cohort 6, 180 mg, Schedule 1 (4:3), 1 patient): 0 patients; DLTs (Cohort 7, 210 mg, Schedule 1 (4:3), 1 patient): 0 patients; DLTs (Cohort 8, 270 mg, Schedule 1 (4:3), 3 patients): 0 patients; DLTs (Cohort 9, 350 mg, Schedule 1 (4:3), 3 patients): 0 patients; DLTs (Cohort 11, 300 mg, Schedule 2 (continuous), 2 patients, grade 2 and grade 4 thrombocytopenia): 2 * patients; DLTs (Cohort 12, 200 mg, Schedule 2 (continuous), 6 patients): 0 patients; TEAE: Anemia (all patients (n = 34)): 35.3%; TEAE: Fatigue (all patients (n = 34)): 47.1%; TEAE: Nausea (all patients (n = 34)): 70.6%; TEAE: anorexia (all patients (n = 34)): 32.4%; TEAE: decreased platelet count (thrombocytopenia) (all patients (n = 34)): 41.2%; grade > 3 treatment-related TEAE: anemia (all patients (n = 34)): 11.8%; grade > 3 treatment-related TEAE: anorexia (all patients (n = 34)): 5.9%; grade > 3 treatment-related TEAE: decreased platelet count (all patients (n = 34)): 5.9%; grade > 3 treatment-related TEAE: prolonged QT interval on ECG (all patients (n = 34)): 5.9%; number of grade > 3 treatment-related TEAEs (all patients (n = 34)): 15; patients with Grade > 3 TEAEs (all patients (n = 34)): 18 (52.9%) patients (%); patients with a treatment-related TEAE (all patients (n = 34)): 33 (97.1%) patients (%); patients with grade > 3 treatment-related TEAEs (all patients (n = 34)): nine; patients with treatment-related TEAEs leading to dose holding or reduction (all patients (n = 34)): Eleven; patients with serious adverse events (SAEs) (all patients (n = 34), one treatment-related (grade 3 nausea)): 14 (41.2%) patients (%); TEAE: Constipation (continuous dosing cohort): 75%; TEAE: Diarrhea (continuous dosing cohort): 38%; TEAE: Fatigue (continuous dosing cohort): 50%; TEAE: Headache (continuous dosing cohort): 38%; TEAE: Nausea (continuous dosing cohort): 75%; TEAE: platelet count decrease (continuous dosing cohort): 50%; grade 4 thrombocytopenia events (continuous dosing cohort, two events, in the 300 mg cohort): 25%; TEAE: Abdominal pain (continuous, 200 mg (N=6), G1): 1 (17) N (%); TEAE: Anemia (continuous, 200 mg (N=6), G1): 0 N (%); TEAE: Constipation (continuous, 200 mg (N=6), G1): 2 (33) N (%); TEAE: Decreased appetite (continuous, 200 mg (N=6), G1): 1 (17) N (%); TEAE: Diarrhea (continuous, 200 mg (N=6), G1): 2 (33) N (%); TEAE: Dyspepsia (continuous, 200 mg (N=6), G1): 1 (17) N (%); TEAE: ECG QT prolonged (continuous, 200 mg (N=6), G1): 1 (17) N (%); TEAE: Fatigue (continuous, 200 mg (N=6), G1): 1 (17) N (%); TEAE: Headache (continuous, 200 mg (N=6), G1): 2 (33) N (%); TEAE: Nausea (continuous, 200 mg (N=6), G1): 2 (33) N (%); TEAE: Pain (continuous, 200 mg (N=6), G1): 1 (17) N (%); TEAE: Platelet count decreased (continuous, 200 mg (N=6), G1): 1 (17) N (%); TEAE: Abdominal pain (continuous, 200 mg (N=6), G2): 1 (17) N (%); TEAE: Anemia (continuous, 200 mg (N=6), G2): 1 (17) N (%); TEAE: Constipation (continuous, 200 mg (N=6), G2): 3 (50) N (%); TEAE: Decreased appetite (continuous, 200 mg (N=6), G2): 0 N (%); TEAE: Diarrhea (continuous, 200 mg (N=6), G2): 0 N (%); TEAE: Dyspepsia (continuous, 200 mg (N=6), G2): 1 (17) N (%); TEAE: ECG QT prolonged (continuous, 200 mg (N=6), G2): 1 (17) N (%); TEAE: Fatigue (continuous, 200 mg (N=6), G2): 2 (33) N (%); TEAE: Headache (continuous, 200 mg (N=6), G2): 0 N (%); TEAE: Nausea (continuous, 200 mg (N=6), G2): 2 (33) N (%); TEAE: Pain (continuous, 200 mg (N=6), G2): 1 (17) N (%); TEAE: Platelet count decreased (continuous, 200 mg (N=6), G2): 1 (17) N (%); TEAE: Abdominal pain (continuous, 200 mg (N=6), G3): 0 N (%); TEAE: Anemia (continuous, 200 mg (N=6), G3): 0 N (%); TEAE: Constipation (continuous, 200 mg (N=6), G3): 0 N (%); TEAE: Decreased appetite (continuous, 200 mg (N=6), G3): 0 N (%); TEAE: Diarrhea (continuous, 200 mg (N=6), G3): 0 N (%); TEAE: Dyspepsia (continuous, 200 mg (N=6), G3): 0 N (%); TEAE: ECG QT prolonged (continuous, 200 mg (N=6), G3): 0 N (%); TEAE: Fatigue (continuous, 200 mg (N=6), G3): 0 N (%); TEAE: Headache (continuous, 200 mg (N=6), G3): 0 N (%); TEAE: Nausea (continuous, 200 mg (N=6), G3): 0 N (%); TEAE: Pain (continuous, 200 mg (N=6), G3): 0 N (%); TEAE: Platelet count decreased (continuous, 200 mg (N=6), G3): 0 N (%); TEAE: Abdominal pain (continuous, 200 mg (N=6), G4): 0 N (%); TEAE: Anemia (continuous, 200 mg (N=6), G4): 0 N (%); TEAE: Constipation (continuous, 200 mg (N=6), G4): 0 N (%); TEAE: Decreased appetite (continuous, 200 mg (N=6), G4): 0 N (%); TEAE: Diarrhea (continuous, 200 mg (N=6), G4): 0 N (%); TEAE: Dyspepsia (continuous, 200 mg (N=6), G4): 0 N (%); TEAE: ECG QT prolonged (continuous, 200 mg (N=6), G4): 0 N (%); TEAE: Fatigue (continuous, 200 mg (N=6), G4): 0 N (%); TEAE: Headache (continuous, 200 mg (N=6), G4): 0 N (%); TEAE: Nausea (continuous, 200 mg (N=6), G4): 0 N (%); TEAE: Pain (continuous, 200 mg (N=6), G4): 0 N (%); TEAE: Platelet count decreased (continuous, 200 mg (N=6), G4): 0 N (%); TEAE: Abdominal pain (continuous, 300 mg (N=2), G1): 0 N (%); TEAE: Anemia (continuous, 300 mg (N=2), G1): 0 N (%); TEAE: Constipation (continuous, 300 mg (N=2), G1): 1 (50) N (%); TEAE: Decreased appetite (continuous, 300 mg (N=2), G1): 0 N (%); TEAE: Diarrhea (continuous, 300 mg (N=2), G1): 1 (50) N (%); TEAE: Dyspepsia (continuous, 300 mg (N=2), G1): 0 N (%); TEAE: ECG QT prolonged (continuous, 300 mg (N=2), G1): 0 N (%); TEAE: Fatigue (continuous, 300 mg (N=2), G1): 0 N (%); TEAE: Headache (continuous, 300 mg (N=2), G1): 1 (50) N (%); TEAE: Nausea (continuous, 300 mg (N=2), G1): 2 (100) N (%); TEAE: Pain (continuous, 300 mg (N=2), G1): 0 N (%); TEAE: Platelet count decreased (continuous, 300 mg (N=2), G1): 0 N (%); TEAE: Abdominal pain (continuous, 300 mg (N=2), G2): 0 N (%); TEAE: Anemia (continuous, 300 mg (N=2), G2): 1 (50) N (%); TEAE: Constipation (continuous, 300 mg (N=2), G2): 0 N (%); TEAE: Decreased appetite (continuous, 300 mg (N=2), G2): 0 N (%); TEAE: Diarrhea (continuous, 300 mg (N=2), G2): 0 N (%); TEAE: Dyspepsia (continuous, 300 mg (N=2), G2): 0 N (%); TEAE: ECG QT prolonged (continuous, 300 mg (N=2), G2): 0 N (%); TEAE: Fatigue (continuous, 300 mg (N=2), G2): 0 N (%); TEAE: Headache (continuous, 300 mg (N=2), G2): 0 N (%); TEAE: Nausea (continuous, 300 mg (N=2), G2): 0 N (%); TEAE: Pain (continuous, 300 mg (N=2), G2): 0 N (%); TEAE: Platelet count decreased (continuous, 300 mg (N=2), G2): 0 N (%); TEAE: Abdominal pain (continuous, 300 mg (N=2), G3): 0 N (%); TEAE: Anemia (continuous, 300 mg (N=2), G3): 0 N (%); TEAE: Constipation (continuous, 300 mg (N=2), G3): 0 N (%); TEAE: Decreased appetite (continuous, 300 mg (N=2), G3): 1 (50) N (%); TEAE: Diarrhea (continuous, 300 mg (N=2), G3): 0 N (%); TEAE: Dyspepsia (continuous, 300 mg (N=2), G3): 0 N (%); TEAE: ECG QT prolonged (continuous, 300 mg (N=2), G3): 0 N (%); TEAE: Fatigue (continuous, 300 mg (N=2), G3): 1 (50) N (%); TEAE: Headache (continuous, 300 mg (N=2), G3): 0 N (%); TEAE: Nausea (continuous, 300 mg (N=2), G3): 0 N (%); TEAE: Pain (continuous, 300 mg (N=2), G3): 0 N (%); TEAE: Platelet count decreased (continuous, 300 mg (N=2), G3): 0 N (%); TEAE: Abdominal pain (continuous, 300 mg (N=2), G4): 0 N (%); TEAE: Anemia (continuous, 300 mg (N=2), G4): 0 N (%); TEAE: Constipation (continuous, 300 mg (N=2), G4): 0 N (%); TEAE: Decreased appetite (continuous, 300 mg (N=2), G4): 0 N (%); TEAE: Diarrhea (continuous, 300 mg (N=2), G4): 0 N (%); TEAE: Dyspepsia (continuous, 300 mg (N=2), G4): 0 N (%); TEAE: ECG QT prolonged (continuous, 300 mg (N=2), G4): 0 N (%); TEAE: Fatigue (continuous, 300 mg (N=2), G4): 0 N (%); TEAE: Headache (continuous, 300 mg (N=2), G4): 0 N (%); TEAE: Nausea (continuous, 300 mg (N=2), G4): 0 N (%); TEAE: Pain (continuous, 300 mg (N=2), G4): 0 N (%); TEAE: Platelet count decreased (continuous, 300 mg (N=2), G4): 2 (100) N (%); recommended phase 2 dose (RP2D) (daily on a 4:3 schedule): 300 mg; maximum tolerated dose (MTD) (4:3 intermittent dosing): 450 mg; maximum tolerated dose (MTD) (continuous dosing): 200 mg; patients with grade 1 or 2 QT prolongation (whole study): four; patients with grade 3 QT prolongation (whole study): three
